Reference: patent US20250313555A1, “2-SUBSTITUTED THIAZOLE AND BENZOTHIAZOLE COMPOSITIONS AND METHODS AS DUX4 INHIBITORS” (ALTAY THERAPEUTICS, INC., priority 2022, published 2025)

How the values were obtained:
Assay type in all cases: cell-based
[1] = Cell cytotoxicity 50 assay (CC50), MB200 cells, cell titer glo; settings: human
Protocol: Cell Cytotoxicity 50 Assay Protocol (CC50) MB200 cells were grown until 80% confluent in F10 media supplemented with rhFGF basic (10 ng/ml), 15% fetal bovine serum, 1% penicillin streptomycin, 1% amphotericin B, and 1 μM dexamethasone. Adherent MB200 cells growing on 10 cm plate were then trypsinized with 1 ml of trypsin. Once the cells detached from the plate, F10 media (10 mL) was added, and the cells were strained through a 70 μm cell strainer. The cells were counted using a mixture of 10 μL cell suspension with 10 μL of trypan blue. Once the total number of cells were counted, a dilution of 200 k/mL was prepared, and the cells were seeded with 10 k cells/well in a 96-well plate in triplicate, making sure to avoid seeding cells in the edges of the plate to avoid edge effects. Using a multichannel pipet, the 200 k/mL cell dilution (50 μL/well) was added into wells B2-B11, C2-C11, and D2-D11 in triplicate. Into a deep well block (DWB), the media for the appropriate cell line (450 μL/well) was added into wells 1-10. Into DWB well 2, 10 mM of drug solution (13.5 μL) was added, followed by an additional volume of the medium (225 μL). The well was pipetted up/down four times. A portion (225 μL) was transferred to well 3, and this process was repeated up to well 10. Using a multichannel pipet, a smaller portion (50 μL/well) was removed from all wells in the DWB and then dispensed on top of the cells in each corresponding row. After adding the drug, the plate was incubated at 37° C. for 72 h. Using a multi-channel pipet, pre-warmed cell titer glo reagent (Promega) (100 μL) was added into every well. After 5 minutes, the total luminescence was measured with a luminometer. CC50 was determined with GraphPad prism template.

[2] = Cell cytotoxicity 50 assay (CC50), HEK cells; settings: human
Protocol: Cell Cytotoxicity 50 Assay Protocol (CC50) Into a deep well block (DWB), the media for the appropriate cell line (450 μL/well) was added into wells 1-10. Into DWB well 2, 10 mM of drug solution (13.5 μL) was added, followed by an additional volume of the medium (225 μL). The well was pipetted up/down four times. A portion (225 μL) was transferred to well 3, and this process was repeated up to well 10. Using a multichannel pipet, a smaller portion (50 μL/well) was removed from all wells in the DWB and then dispensed on top of the cells in each corresponding row. After adding the drug, the plate was incubated at 37° C. for 72 h. Using a multi-channel pipet, pre-warmed cell titer glo reagent (Promega) (100 μL) was added into every well. After 5 minutes, the total luminescence was measured with a luminometer. CC50 was determined with GraphPad prism template.

MBD3L2 RNA = assay: RNA isolation and qPCR to determine MBD3L2 RNA levels in FSHD cells; settings: 48 hrs
Protocol: Protocol for RNA Isolation and qPCR to Determine MBD3L2 RNA Levels The protocol describes the process of isolating RNA from cultured cells, converting the RNA to complementary DNA (cDNA), and measuring target gene expression using a quantitative polymerase chain reaction (qPCR). The seed FSHD cells were dispensed into a six-well dish. One day after seeding, the DUX4 inhibitor (11 μM or 3.6 μM/well) was added to the cells. After another 48 hrs, the old media was removed from the cells. The cells were washed with 2 mL of warm phosphate buffered saline (PBS). The PBS was aspirated, and the cells were lysed in each well with 350 μL of RLT buffer+3.5 μL of beta-mercaptoethanol (BME). The lysates were added to fresh, RNAse-free, labeled Eppendorf tubes. The cells were then physically disrupted for […] at level 4 of the bead disrupter to ensure the release of the RNA. The RNA was collected according to standard procedures (i.e., Qiagen kit instructions) as discussed below. The RNA concentrations were standardized to […]. In a PCR tube, RNA (2 μg) in a new Eppendorf tube was diluted with RNase-free water to a 9.5 μL final volume of […] RNA. DNase was used to remove any DNA contamination. A DNase Master Mix was prepared from 1.5 μL/reaction DNase solution (1 unit/μL, Promega), 3 μL/reaction 5× RT buffer (i.e., 250 mM Tris-HCl (pH 8.3), 375 mM KCl, 15 mM MgCl2, and 500 μl 0.1 M DTT; Promega MMLV), and 1 μL/reaction RNase inhibitor solution (RNasin, 40 units/μL, Promega). The DNase Master Mix was added to the standardized RNA samples (5.5 μL/sample). The samples were mixed by agitation and briefly spun down by centrifuge. The samples were heated to 37° C. for 60 min, 80° C. for 5 min, and then cooled to 4° C. The samples were stored on ice until the addition of the next reagents. An RT Reaction Master Mix was prepared from 5 μL/reaction 5× RT buffer, 2 μL/reaction dNTP solution (2.5 mM in each nucleotide), 1 μL/reaction RNase inhibitor solution (RNasin, 40 units/μL, Promega), 1.6 μL/reaction M-MLV reverse transcriptase (200 units/μL, Promega), and 13.4 μL/reaction deionized, RNase-free water. The RT Reaction Master Mix was cooled on ice until use. A 50 μM solution of Random Primer 6 random hexanucleotides (2 μL) was added to each sample. The samples were mixed by agitation and briefly spun down by centrifuge. The samples were heated to 70° C. for 5 min and then cooled to 4° C. The RT Reaction Master Mix (23 μL) was added to each sample. The samples were mixed by agitation and briefly spun down by centrifuge. To convert the RNA to cDNA, the samples were heated to 42° C. for 60 min, 95° C. for 5 min, and then cooled to 4° C. The cDNA product mixture was diluted 5:1 with deionized water (40 μL+160 μL). The samples were run in triplicate, with a methyl-CpG-binding protein 3-like 2 (MBD3L2) target primer and a eukaryotic translation elongation factor 1-alpha (EEF1A) control primer. An qPCR Master Mix was prepared for each primer and stored on ice (4° C.) until use. The qPCR Master Mix included 10 μL/reaction SYBR Green Mix (2×) (ThermoFisher), 1 μL/reaction of the primer mix (i.e., the MBD3L2 PCR Primer mix or the EEF1A Primer mix), and 4 μL/reaction deionized, RNase-free water. To set up the qPCR plate, 15 μL of the appropriate qPCR Master Mix was added to the appropriate wells for each target/primer. After all the targets/primers have been added to the wells, 5 μL of the sample was added to the corresponding wells so that each well is 20 μL total. The plate was covered with a clear sheet. An qPCR run was set up (QuantStudio 5) with the following cycle: […]

CC(=O)NC(C)CCC(=O)Nc1ccc(-c2nc3ccccc3s2)cc1 (stereo not drawn) [Compound 56]
CC50 at 72 h [1]: > 10 µM
CC50 at 72 h [2]: > 10 µM
qPCR MBD3L2 Inhib at 11 µM (MBD3L2 RNA): YES

O=C(CCc1cnn[nH]1)Nc1ccc(-c2nc3ccccc3s2)cc1 [Compound 40]
CC50 at 72 h [1]: > 10 µM
CC50 at 72 h [2]: > 10 µM
qPCR MBD3L2 Inhib at 11 µM (MBD3L2 RNA): YES

CC(=O)N[C@H]1CC[C@H](C(=O)Nc2nc3ccccc3s2)C1 [Compound 184]
CC50 at 72 h [1]: > 10 µM
CC50 at 72 h [2]: > 10 µM
qPCR MBD3L2 Inhib at 11 µM (MBD3L2 RNA): YES

CC(=O)NCCNC(=O)Cc1ccc(-c2nc3cc(F)ccc3s2)cc1 [Compound 111]
CC50 at 72 h [1]: > 10 µM
CC50 at 72 h [2]: > 10 µM
qPCR MBD3L2 Inhib at 11 µM (MBD3L2 RNA): YES

O=C(CCc1cccnc1)Nc1ccc(-c2nc3ccccc3s2)nc1 [Compound 83]
CC50 at 72 h [1]: > 10 µM
CC50 at 72 h [2]: > 10 µM
qPCR MBD3L2 Inhib at 11 µM (MBD3L2 RNA): YES

CC(=O)NCCCC(=O)Nc1ccc(-c2nc3cc(F)c(F)cc3s2)cc1 [Compound 84]
CC50 at 72 h [1]: > 10 µM
CC50 at 72 h [2]: > 10 µM
qPCR MBD3L2 Inhib at 11 µM (MBD3L2 RNA): YES

O=C(CCCN1C(=O)CCC1=O)NC1CC=C(c2nc3ccccc3s2)CC1 (stereo not drawn) [Compound 46]
CC50 at 72 h [1]: > 10 µM
CC50 at 72 h [2]: > 10 µM
qPCR MBD3L2 Inhib at 11 µM (MBD3L2 RNA): YES

O=C(CCc1cn[nH]c1)Nc1ccc(-c2nc3ccccc3s2)cc1 [Compound 27]
CC50 at 72 h [1]: > 10 µM
CC50 at 72 h [2]: > 10 µM
qPCR MBD3L2 Inhib at 11 µM (MBD3L2 RNA): YES

O=C(CCCCc1cccnc1)Nc1ccc(-c2nc3ccccc3s2)cc1 [Compound 140]
CC50 at 72 h [1]: > 10 µM
CC50 at 72 h [2]: > 10 µM
qPCR MBD3L2 Inhib at 11 µM (MBD3L2 RNA): YES

CC(=O)NCCC(=O)Nc1ccc(-c2nc3cc(C)ccc3s2)cc1 [Compound 53]
CC50 at 72 h [1]: > 10 µM
CC50 at 72 h [2]: > 10 µM
qPCR MBD3L2 Inhib at 11 µM (MBD3L2 RNA): YES

CC(=O)NCCC(=O)Nc1ccc(-c2nc3ccccc3s2)cc1 [Compound 38]
CC50 at 72 h [1]: > 10 µM
CC50 at 72 h [2]: > 10 µM
qPCR MBD3L2 Inhib at 11 µM (MBD3L2 RNA): YES

O=C(CCCc1cccnc1)NC1CCC(c2nc3ccccc3s2)CC1 (stereo not drawn) [Compound 61]
CC50 at 72 h [1]: > 10 µM
CC50 at 72 h [2]: > 10 µM
qPCR MBD3L2 Inhib at 11 µM (MBD3L2 RNA): YES

N#Cc1ccc2nc(-c3ccc(NC(=O)CCN4C(=O)CCC4=O)cc3)sc2c1 [Compound 54]
CC50 at 72 h [1]: 1 to 10 µM
CC50 at 72 h [2]: > 10 µM
qPCR MBD3L2 Inhib at 11 µM (MBD3L2 RNA): YES

CC(=O)NCCCC(=O)Nc1ccc(-c2nc3ccccc3s2)nc1 [Compound 32]
CC50 at 72 h [1]: > 10 µM
CC50 at 72 h [2]: > 10 µM
qPCR MBD3L2 Inhib at 11 µM (MBD3L2 RNA): YES

CC(=O)NC1CCC(C(=O)Nc2ccc(-c3nc4ccccc4s3)cc2)C1 (stereo not drawn) [Compound 85]
CC50 at 72 h [1]: > 10 µM
CC50 at 72 h [2]: > 10 µM
qPCR MBD3L2 Inhib at 11 µM (MBD3L2 RNA): YES

O=C(CCc1cccnc1)Nc1ccc(-c2nc3ccccc3s2)cc1 [Compound 13]
CC50 at 72 h [1]: > 10 µM
CC50 at 72 h [2]: > 10 µM
qPCR MBD3L2 Inhib at 11 µM (MBD3L2 RNA): YES

O=C(CCCc1cccnc1)Nc1ccc(-c2nc3ccccc3s2)cc1 [Compound 52]
CC50 at 72 h [1]: > 10 µM
CC50 at 72 h [2]: > 10 µM
qPCR MBD3L2 Inhib at 11 µM (MBD3L2 RNA): YES

CC(=O)NCCCC(=O)Nc1ccc(-c2nc(-c3ccccc3)cs2)cc1 [Compound 130]
CC50 at 72 h [1]: > 10 µM
CC50 at 72 h [2]: > 10 µM
qPCR MBD3L2 Inhib at 11 µM (MBD3L2 RNA): YES

CC(=O)NC(C)(C)/C=C/C(=O)Nc1ccc(-c2nc3ccccc3s2)cc1 [Compound 104]
CC50 at 72 h [1]: > 10 µM
CC50 at 72 h [2]: > 10 µM
qPCR MBD3L2 Inhib at 11 µM (MBD3L2 RNA): YES

O=C(CCN1C(=O)CCC1=O)Nc1ccc(-c2nc3ccccc3s2)nc1 [Compound 37]
CC50 at 72 h [1]: > 10 µM
CC50 at 72 h [2]: > 10 µM
qPCR MBD3L2 Inhib at 11 µM (MBD3L2 RNA): YES

O=C(CCN1C(=O)CCC1=O)Nc1ccc(-c2nc3ccccc3s2)cc1 [Compound 1]
CC50 at 72 h [1]: 1 to 10 µM
CC50 at 72 h [2]: > 10 µM
qPCR MBD3L2 Inhib at 11 µM (MBD3L2 RNA): YES

O=C(CCc1cncnc1)Nc1ccc(-c2nc3ccccc3s2)cc1 [Compound 55]
CC50 at 72 h [1]: > 10 µM
CC50 at 72 h [2]: > 10 µM
qPCR MBD3L2 Inhib at 11 µM (MBD3L2 RNA): YES

O=C(CCCc1cccnc1)Nc1coc(-c2nc3ccccc3s2)c1 [Compound 62]
CC50 at 72 h [1]: > 10 µM
CC50 at 72 h [2]: > 10 µM
qPCR MBD3L2 Inhib at 11 µM (MBD3L2 RNA): YES

O=C(CCCc1cccnc1)Nc1ccc(Cc2nc3ccccc3s2)cc1 [Compound 60]
CC50 at 72 h [1]: > 10 µM
CC50 at 72 h [2]: > 10 µM
qPCR MBD3L2 Inhib at 11 µM (MBD3L2 RNA): YES

O=C(CCc1cnco1)Nc1ccc(-c2nc3cc(F)ccc3s2)cc1 [Compound 65]
CC50 at 72 h [1]: > 10 µM
CC50 at 72 h [2]: > 10 µM
qPCR MBD3L2 Inhib at 11 µM (MBD3L2 RNA): YES

CC(=O)NCCCC(=O)Nc1ccc(-c2nc3ccccc3s2)c(C)c1 [Compound 129]
CC50 at 72 h [1]: > 10 µM
CC50 at 72 h [2]: > 10 µM
qPCR MBD3L2 Inhib at 11 µM (MBD3L2 RNA): YES
